Experiments:
kidney [1] = assay type: in vivo, C57BL/6J male mice; settings: sucrose 200 mg/mL co-administered with PMO No. 11 130 mg/mL, 20 mL/kg tail vein, mice
Experimental: The antisense oligomer of PMO No. 11 was dissolved in physiological saline to prepare a control dosing solution comprising the antisense oligomer at the concentration shown in Table 14 and comprising no sucrose. Next, the antisense oligomer of PMO No. 11 and sucrose were dissolved in physiological saline to prepare dosing solutions comprising the antisense oligomer and sucrose at the concentrations shown in Table 14. The obtained dosing solutions were administered into the tail vein of 6-week-old C57BL/6J male mice (N=5) at 20 mL/kg. Next day, the mice were subjected to autopsy, and formalin-fixed paraffin-embedded samples of the respective kidneys were prepared. Sections obtained by slicing the samples were subjected to hematoxylin-eosin staining and a histopathological test of the sections was performed. Compared to the mice to which the control dosing solution comprising no sucrose has been administered, it was determined that the precipitation was suppressed in a case where there was improvement in the findings on the histopathological test of the kidney of the mice to which the dosing solution comprising sucrose has been administered.

kidney [2] = assay type: in vivo, C57BL/6J male mice; settings: sucrose 20 to 100 mg/mL co-administered with PMO No. 8 50 mg/mL, 10 mL/kg tail vein, mice
Experimental: The antisense oligomer of PMO No. 8 was dissolved in water for injection comprising 0.9% sodium chloride, and a solution obtained by dissolving sucrose (manufactured by FUJIFILM Wako Pure Chemical Corporation) with physiological saline was added thereto to prepare a dosing solution comprising each of the antisense oligomer and sucrose at the concentrations shown in Tables 12 and 13. The obtained dosing solutions were administered into the tail vein of 6-week-old C57BL/6J male mice (N=3) at the amount of dosing solution shown in Table 12 (10 mL/kg). Next day, some mice to which the antisense oligomer of PMO No. 8 had been administered were subjected to autopsy, and formalin-fixed paraffin-embedded samples of the respective kidneys were prepared. Sections obtained by slicing the samples were subjected to hematoxylin-eosin staining and a histopathological test of the sections was performed.

[3] = Precipitation suppression with sucrose: absorbance at 620 nm of antisense oligomer in KCl/NaCl solution assumed to be in urine; assay type: physicochemical
Experimental: The presence or absence of the precipitation suppressing effects can be determined by adding the antisense oligomer and the precipitation suppressing agent in a solvent simulating urine and examining as described in Examples whether or not the precipitation suppressing agent reduces an increase in absorbance caused by precipitation of the antisense oligomer. For example, after the antisense oligomer and the precipitation suppressing agent are added to the solvent (e.g., 5 minutes later, 10 minutes later, 15 minutes later, 20 minutes later, 25 minutes later, 30 minutes later, 40 minutes later, 50 minutes later, 60 minutes later, 70 minutes later, 80 minutes later, or 90 minutes later), the absorbance can be determined under the conditions of 37° C. At this time, compared to a case of adding no precipitation suppressing agent, it can be determined to be effective in suppressing precipitation when a time until the precipitation is observed (until the increased absorbance at 620 nm is observed) or the absorbance at 620 nm are reduced, for example, by 5% or more, 10% or more, 20% or more, 30% or more, 40% or more, or 50% or more in the case of adding the precipitation suppressing agent. […] The absorbance at 620 nm of the solution thus mixed was measured using a plate reader, Infinite F200 Pro (manufactured by Tecan Group Ltd.) under heating conditions of 37° C. […]

[4] = Precipitation suppression with trehalose: absorbance at 620 nm of antisense oligomer in KCl/NaCl solution assumed to be in urine; assay type: physicochemical; settings: Example 7: trehalose 45 to 180 mg/mL with PMO Nos. 1, 2, 7, and 8, 37° C., Tables 18 to 21
Experimental: The presence or absence of the precipitation suppressing effects can be determined by adding the antisense oligomer and the precipitation suppressing agent in a solvent simulating urine and examining as described in Examples whether or not the precipitation suppressing agent reduces an increase in absorbance caused by precipitation of the antisense oligomer. For example, after the antisense oligomer and the precipitation suppressing agent are added to the solvent (e.g., 5 minutes later, 10 minutes later, 15 minutes later, 20 minutes later, 25 minutes later, 30 minutes later, 40 minutes later, 50 minutes later, 60 minutes later, 70 minutes later, 80 minutes later, or 90 minutes later), the absorbance can be determined under the conditions of 37° C. At this time, compared to a case of adding no precipitation suppressing agent, it can be determined to be effective in suppressing precipitation when a time until the precipitation is observed (until the increased absorbance at 620 nm is observed) or the absorbance at 620 nm are reduced, for example, by 5% or more, 10% or more, 20% or more, 30% or more, 40% or more, or 50% or more in the case of adding the precipitation suppressing agent. […]

SMILES	precipitation suppression in kidney (improvement in findings on histopathological test) (kidney [1])	precipitation suppressing effect in kidney (amount of precipitates, basophilic substances in lumens of renal tubules) (kidney [2])	precipitation suppressing effect on antisense oligomers ([3]; Example 3: sucrose 45 to 270 mg/mL with PMO Nos. 8, 9, 10, 11, KCl and NaCl, 37° C., Tables 4 to 11)	precipitation suppressing effect on antisense oligomers ([3]; Example 6: sucrose 45 to 135 mg/mL with PMO Nos. 1, 2, and 7, 37° C., Tables 15 to 17)	precipitation suppressing effect on antisense oligomers [4]
OC[C@H]1O[C@@](CO)(O[C@H]2O[C@H](CO)[C@@H](O)[C@H](O)[C@H]2O)[C@@H](O)[C@@H]1O [sucrose]	confirmed to suppress precipitation	amount of precipitates decreased according to the concentrations of sucrose	suppress the precipitation of antisense oligomers	suppress the precipitation of antisense oligomers	–
OC[C@H]1O[C@H](O[C@H]2O[C@H](CO)[C@@H](O)[C@H](O)[C@H]2O)[C@H](O)[C@@H](O)[C@@H]1O [trehalose]	–	–	–	–	suppress the precipitation of antisense oligomers
